The data set in a line: in vitro. Conditions: rat, gh3-tre-luc cells.

Where a name gives a salt, the structure may show the parent alone.

`CC1(C)CC(=O)CC(C)(C)N1` [2,2,6,6-Tetramethyl-4-piperidone]: the cytotoxic concentration (CC50) (in general, the concentration giving 50% cytotoxicity) at 24 h (AC50 (uM) modified / 1000) is above 90 µM.

On to `C=CC(=O)OCC[N+](C)(C)C` [2-(Dimethylamino)ethyl acrylate methochloride], for which the CC50 at 24 h (AC50 (uM) modified / 1000) is above 90 µM.

On to `O=S(=O)(O)c1cccc(S(=O)(=O)O)c1` [Disodium benzene-1,3-disulfonate], for which, where the note is “AC50 (uM) modified / 1000”, the CC50 at 24 h is above 90 µM.

Where the note is “AC50 (uM) modified / 1000”, `OCCN(CCO)CCN(CCO)CCO` [2,2',2'',2'''-(1,2-Ethanediyldinitrilo)tetrakisethanol] had a 50% cytotoxic concentration (CC50) at 24 h above 90 µM.

The compound `Cc1cccc(Nc2ccccc2)c1` [3-Methyl-N-phenylaniline] showed a 50% cytotoxic concentration (CC50) at 24 h (AC50 (uM) modified / 1000) above 90 µM.

Under “AC50 (uM) modified / 1000”, `C=CC(=O)N1CCOCC1` [1-(Morpholin-4-yl)prop-2-en-1-one] showed a CC50 at 24 h above 90 µM.

`Cc1cc(N)c2cc(NC(=O)Nc3ccc4nc(C)cc(N)c4c3)ccc2n1` [Aminoquinuride dihydrochloride]: under “AC50 (uM) modified / 1000”, the cytotoxic concentration (CC50) at 24 h was 35 µM.

For `O=C(CCCN1CCC(n2c(O)nc3ccccc32)CC1)c1ccc(F)cc1` [Benperidol], the CC50 at 24 h (AC50 (uM) modified / 1000) is above 20 µM.

Under “AC50 (uM) modified / 1000”, `CCCCc1ccc(O)cc1` [4-Butylphenol] registered a CC50 at 24 h of 92.9 µM.

Under “AC50 (uM) modified / 1000”, `Clc1ccccc1Cl` [1,2-Dichlorobenzene] registered a cytotoxic concentration (CC50) at 24 h above 90 µM.

In turn, `CC(C)(C)C(=O)CCl` [1-Chloropinacolone] displayed a CC50 at 24 h (AC50 (uM) modified / 1000) above 90 µM.

The compound `CCNS(=O)(=O)c1ccc(C)cc1` [N-Ethyl-4-methylbenzenesulfonamide] had a CC50 at 24 h (AC50 (uM) modified / 1000) above 90 µM.

Where the note is “AC50 (uM) modified / 1000, Tox21_110001=Tox21_200297, viability, 1 nM T3 present, 24 h”, `Oc1ccc(Cl)c(Cl)c1Cl` [2,3,4-Trichlorophenol] came in with a cytotoxic concentration (CC50) at 24 h above 100 µM.

For the compound `Cc1oc(-c2ccccc2)nc1CCOc1ccc(C[C@H](Nc2ccccc2C(=O)c2ccccc2)C(=O)O)cc1` [Farglitazar], the CC50 at 24 h (AC50 (uM) modified / 1000) was 25 µM.

Under “AC50 (uM) modified / 1000”, `O=C(O)c1ccncc1` [Isonicotinic acid] had a cytotoxic concentration (CC50) at 24 h above 90 µM.

For `CCCC(=O)C(C)=O` [2,3-Hexanedione], for the setting “AC50 (uM) modified / 1000”, the 50% cytotoxic concentration (CC50) at 24 h is above 90 µM.

In turn, `Cn1cc(NC(=O)c2cc(NC(=O)c3cc(NC=O)cn3C)cn2C)cc1C(=O)NCCC(=N)N` [Stallimycin] had a 50% cytotoxic concentration (CC50) at 24 h (AC50 (uM) modified / 1000) above 50 µM.

For the compound `CCCCCCC1CCOC1=O` (stereo not drawn) [alpha-Hexyl-gamma-butyrolactone], under “AC50 (uM) modified / 1000”, the 50% cytotoxic concentration (CC50) at 24 h is above 90 µM.

For the setting “AC50 (uM) modified / 1000”, `CCCCCCOc1ccccc1C(N)=O` [Exalamide] had a 50% cytotoxic concentration (CC50) at 24 h above 50 µM.

Consider `C=CS(=O)(=O)O` [Sodium ethenesulfonate], for which the CC50 at 24 h (AC50 (uM) modified / 1000) is above 50 µM.

In the case of `CC(=O)O[C@@H]1C[C@@H]2CC[C@@]1(C)C2(C)C` [Bornyl acetate], for the setting “AC50 (uM) modified / 1000”, the CC50 at 24 h is above 90 µM.

`O=S1(=O)OC(c2cc(Br)c(O)c(Br)c2)(c2cc(Br)c(O)c(Br)c2)c2ccccc21` [Bromophenol blue] yielded a CC50 at 24 h (AC50 (uM) modified / 1000) of 63.9 µM.

In turn, `O=C(NCC(O)CO)c1c(I)c(C(=O)NCC(O)CO)c(I)c(N(CCO)C(=O)CO)c1I` (centres unmarked) [Ioversol] displayed a 50% cytotoxic concentration (CC50) at 24 h (AC50 (uM) modified / 1000) above 20 µM.

As for `O=Cc1ccc(F)c(Br)c1` [3-Bromo-4-fluorobenzaldehyde], where the note is “AC50 (uM) modified / 1000”, the 50% cytotoxic concentration (CC50) at 24 h was above 90 µM.

Consider `C=CC(OCC)OCC` [Acrolein diethylacetal], for which, for the setting “AC50 (uM) modified / 1000”, the CC50 at 24 h is above 90 µM.

Regarding `CC(=O)NCc1c(I)c(NC(C)=O)c(I)c(C(=O)O)c1I` [Iodamide], for the setting “AC50 (uM) modified / 1000”, the CC50 at 24 h is above 50 µM.

Turning to `COC(=O)C1=C(C)NC(COC(N)=O)=C(C(=O)OC(C)C)C1c1cccc(Cl)c1Cl` (centres unmarked) [Lemildipine], the midpoint of cytotoxicity (AC50 (uM) modified / 1000), the CC50 at 24 h, lay at 25.8 µM.

Compound `CCCCCCCCCCCCCCCS(=O)(=O)Oc1ccccc1` [C10-21 alkanesulfonic acids phenyl esters] showed a CC50 at 24 h (AC50 (uM) modified / 1000) above 50 µM.

For the setting “AC50 (uM) modified / 1000”, `c1ccc(-c2ccccn2)nc1` [2,2'-Bipyridine] showed a CC50 at 24 h above 90 µM.

Where the note is “AC50 (uM) modified / 1000”, `O=c1[nH]c2ccc([S+]([O-])CCN3CCC(Cc4ccc(F)cc4)CC3)cc2o1` (centres unmarked) [Besonprodil] yielded a half-maximal cytotoxic concentration (CC50) at 24 h above 90 µM.

Regarding `N#CCN(CC#N)CCN(CC#N)CC#N` [(Ethylenedinitrilo)tetraacetonitrile], under “AC50 (uM) modified / 1000”, the CC50 at 24 h was above 90 µM.

Regarding `O=C(Cl)c1c(Cl)cccc1Cl` [2,6-Dichlorobenzoyl chloride], the CC50 at 24 h (AC50 (uM) modified / 1000) is above 90 µM.
